Laboratory results reported in ChEMBL document CHEMBL1201862, “PubChem BioAssay data set” (2004).
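Exposure lasted 48 hours, with cells grown in 96-well plates and compounds tested at five concentrations. Abbreviation: GI50, concentration required for 50% inhibition of growth.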 Calls of active or inactive are those of the source. Cut-off read from the data, not from the text of the source: active = GI50 up to about 1.1 µM and inactive = higher.

Tests used:
Assay in all cases: NCI tumour cell line growth inhibition, 48 h
786-0 = test system: 786-0
HL-60 = test system: HL-60
HOP-62 = test system: HOP-62
HT-29 = test system: HT-29
KM12 = test system: KM12
MOLT-4 = test system: MOLT-4
NCI-H460 = test system: NCI-H460
NCI-H522 = test system: NCI-H522
OVCAR-8 = test system: OVCAR-8
SK-OV-3 = test system: SK-OV-3
SN12C = test system: SN12C
SNB-19 = test system: SNB-19
SNB-75 = test system: SNB-75
SR = test system: SR
SW-620 = test system: SW-620
UACC-257 = test system: UACC-257
UO-31 = test system: UO-31
HOP-92 = test system: HOP-92
RXF 393 = test system: RXF 393

Row | Compound | GI50 (786-0) | GI50 (HL-60) | GI50 (HOP-62) | GI50 (HT-29) | GI50 (KM12) | GI50 (MOLT-4) | GI50 (NCI-H460) | GI50 (NCI-H522) | GI50 (OVCAR-8) | GI50 (SK-OV-3) | GI50 (SN12C) | GI50 (SNB-19) | GI50 (SNB-75) | GI50 (SR) | GI50 (SW-620) | GI50 (UACC-257) | GI50 (UO-31) | GI50 (HOP-92) | GI50 (RXF 393)
1 | N#CCCN(CCC#N)c1ccc(/C=C2\N=C(c3cc([N+](=O)[O-])ccc3Cl)OC2=O)cc1 | 34.4 µM (inactive) | 38.1 µM (inactive) | 35.4 µM (inactive) | > 100 µM (inactive) | 14.7 µM (inactive) | 24.2 µM (inactive) | 67.5 µM (inactive) | 14 µM (inactive) | 19.1 µM (inactive) | > 100 µM (inactive) | 19.9 µM (inactive) | 25.9 µM (inactive) | 23.9 µM (inactive) | 33.3 µM (inactive) | 68.4 µM (inactive) | 20 µM (inactive) | > 100 µM (inactive) | – | –
2 | CC(=O)Oc1cc(OC(C)=O)c(OC(C)=O)c2c1CC1C(=O)C3(CCc4ccccc43)C(=O)C1C2 (stereo unspecified) | 13.6 µM (inactive) | 4.53 µM (inactive) | 21.1 µM (inactive) | 20.7 µM (inactive) | – | – | 13.9 µM (inactive) | – | 14.2 µM (inactive) | 32.1 µM (inactive) | 17.3 µM (inactive) | – | 0.912 µM (active) | – | 17.9 µM (inactive) | – | 22.1 µM (inactive) | > 100 µM (inactive) | 15 µM (inactive)
3 | COc1cc(/C=C2\C(=O)N(C(=O)Cc3ccccc3)N=C2C)ccc1O | > 100 µM (inactive) | > 100 µM (inactive) | > 100 µM (inactive) | > 10 µM (inactive) | > 100 µM (inactive) | > 100 µM (inactive) | – | > 100 µM (inactive) | > 100 µM (inactive) | – | > 100 µM (inactive) | > 100 µM (inactive) | > 100 µM (inactive) | > 100 µM (inactive) | > 100 µM (inactive) | > 100 µM (inactive) | > 100 µM (inactive) | – | –
4 | [O-][Cl+3]([O-])([O-])[O-].c1ccc(-c2[o+]c(-c3ccccc3)c(-c3ccccc3)c(-c3ccccc3)c2-c2ccccc2)cc1 | > 100 µM (inactive) | > 100 µM (inactive) | > 100 µM (inactive) | > 100 µM (inactive) | – | 44.7 µM (inactive) | > 100 µM (inactive) | > 100 µM (inactive) | > 100 µM (inactive) | > 100 µM (inactive) | > 100 µM (inactive) | – | > 100 µM (inactive) | – | > 100 µM (inactive) | > 100 µM (inactive) | > 100 µM (inactive) | > 100 µM (inactive) | 12 µM (inactive)
5 | COc1ccc(/C(=N\NC(=O)C(N)=O)C(c2ccc(OC)cc2)C2(O)C(=O)Nc3c(Cl)cccc32)cc1 (stereo unspecified) | 74.8 µM (inactive) | 26.9 µM (inactive) | > 100 µM (inactive) | > 100 µM (inactive) | > 100 µM (inactive) | 82.4 µM (inactive) | > 100 µM (inactive) | – | > 100 µM (inactive) | – | > 100 µM (inactive) | > 100 µM (inactive) | > 100 µM (inactive) | – | > 100 µM (inactive) | > 100 µM (inactive) | > 100 µM (inactive) | > 100 µM (inactive) | > 100 µM (inactive)
6 | O=C(O)C1=C(Cl)c2ccccc2S1(=O)=O | > 100 µM (inactive) | > 100 µM (inactive) | > 100 µM (inactive) | – | > 100 µM (inactive) | > 100 µM (inactive) | > 100 µM (inactive) | 19.8 µM (inactive) | > 100 µM (inactive) | > 100 µM (inactive) | > 100 µM (inactive) | > 100 µM (inactive) | > 100 µM (inactive) | – | > 100 µM (inactive) | > 100 µM (inactive) | > 100 µM (inactive) | > 100 µM (inactive) | > 100 µM (inactive)
7 | Cc1ccc(CC(C)N)cc1 (stereo unspecified) | > 100 µM (inactive) | > 100 µM (inactive) | > 100 µM (inactive) | > 100 µM (inactive) | > 100 µM (inactive) | > 100 µM (inactive) | > 100 µM (inactive) | > 100 µM (inactive) | > 100 µM (inactive) | > 100 µM (inactive) | > 100 µM (inactive) | > 100 µM (inactive) | > 100 µM (inactive) | – | > 100 µM (inactive) | > 100 µM (inactive) | > 100 µM (inactive) | > 100 µM (inactive) | > 100 µM (inactive)
8 | COc1cc([C@@H]2c3cc4c(cc3[C@@H](NC(=O)c3cccc(C#N)c3)C3COC(=O)[C@@H]32)OCO4)cc(OC)c1O (stereo partly specified) | 0.703 µM (active) | 0.166 µM (active) | 0.172 µM (active) | 1.85 µM (inactive) | 1.39 µM (inactive) | 15.1 µM (inactive) | < 0.01 µM (active) | 0.908 µM (active) | 1.19 µM (inactive) | 0.912 µM (active) | 0.229 µM (active) | 0.404 µM (active) | 0.433 µM (active) | – | 0.583 µM (active) | 6.17 µM (inactive) | 5.47 µM (inactive) | 0.498 µM (active) | 3.18 µM (inactive)
9 | COc1cc2c(c(O)c1C)C(=O)CC(c1ccccc1)O2 (stereo unspecified) | 59.7 µM (inactive) | – | > 100 µM (inactive) | > 10 µM (inactive) | 62.8 µM (inactive) | 32.8 µM (inactive) | > 10 µM (inactive) | 50.2 µM (inactive) | > 100 µM (inactive) | 36.2 µM (inactive) | 37.5 µM (inactive) | – | 28.8 µM (inactive) | – | > 10 µM (inactive) | 38.5 µM (inactive) | 23 µM (inactive) | 13.4 µM (inactive) | –
10 | Cc1ccc(Cn2c(C)nc3c2C(=O)c2ccccc2C3=O)cc1 | 2.18 µM (inactive) | 1.91 µM (inactive) | 14 µM (inactive) | 1.27 µM (inactive) | 4.56 µM (inactive) | 0.64 µM (active) | 0.387 µM (active) | 3.14 µM (inactive) | 3.05 µM (inactive) | 13.8 µM (inactive) | 6.18 µM (inactive) | 11.6 µM (inactive) | 13.9 µM (inactive) | 0.331 µM (active) | 3.33 µM (inactive) | 11.7 µM (inactive) | 6.32 µM (inactive) | – | 11.4 µM (inactive)
11 | CC(C)N(C(=O)C12CC3CC(CC(C3)C1)C2)C(C)C | > 50 µM (inactive) | > 50 µM (inactive) | > 50 µM (inactive) | > 50 µM (inactive) | > 50 µM (inactive) | > 50 µM (inactive) | > 50 µM (inactive) | > 50 µM (inactive) | > 50 µM (inactive) | > 50 µM (inactive) | > 50 µM (inactive) | > 50 µM (inactive) | > 50 µM (inactive) | – | > 50 µM (inactive) | > 50 µM (inactive) | > 50 µM (inactive) | > 50 µM (inactive) | > 50 µM (inactive)
12 | COC12C=CC(CC1)c1c(O)ccc(O)c12 (stereo unspecified) | > 64.9 µM (inactive) | 2.39 µM (inactive) | > 100 µM (inactive) | 64.9 µM (inactive) | > 95.1 µM (inactive) | 22.8 µM (inactive) | 52.8 µM (inactive) | 16.8 µM (inactive) | 33 µM (inactive) | > 100 µM (inactive) | 59.3 µM (inactive) | > 70.6 µM (inactive) | 53.7 µM (inactive) | 5.6 µM (inactive) | 27.5 µM (inactive) | > 84.9 µM (inactive) | > 80.7 µM (inactive) | – | > 79.6 µM (inactive)
13 | CC1CC/C(=C\c2ccc(Cl)cc2)c2nc(N)c(C#N)c(-c3ccc(Cl)cc3)c21 (stereo unspecified) | > 100 µM (inactive) | 3.07 µM (inactive) | 70.6 µM (inactive) | 30.7 µM (inactive) | 40.2 µM (inactive) | 14.1 µM (inactive) | – | 30.3 µM (inactive) | 63.2 µM (inactive) | > 100 µM (inactive) | > 100 µM (inactive) | 29.9 µM (inactive) | 67 µM (inactive) | < 0.01 µM (active) | 55.3 µM (inactive) | 32.9 µM (inactive) | 27.7 µM (inactive) | – | –
14 | CC1(C)CC(/C=C2/OC(=O)c3ccccc32)=C(C#N)C(=O)O1 | > 100 µM (inactive) | – | > 100 µM (inactive) | > 100 µM (inactive) | > 100 µM (inactive) | > 100 µM (inactive) | > 100 µM (inactive) | > 100 µM (inactive) | > 100 µM (inactive) | > 100 µM (inactive) | > 100 µM (inactive) | > 100 µM (inactive) | > 100 µM (inactive) | > 100 µM (inactive) | > 100 µM (inactive) | > 100 µM (inactive) | > 100 µM (inactive) | – | –
15 | CN(C(=O)c1ccc([N+](=O)[O-])cc1)c1ccccc1 | > 100 µM (inactive) | – | > 100 µM (inactive) | > 100 µM (inactive) | > 100 µM (inactive) | > 100 µM (inactive) | > 100 µM (inactive) | > 100 µM (inactive) | > 100 µM (inactive) | > 100 µM (inactive) | > 100 µM (inactive) | > 100 µM (inactive) | 87.9 µM (inactive) | – | > 100 µM (inactive) | > 100 µM (inactive) | > 100 µM (inactive) | > 100 µM (inactive) | 21.6 µM (inactive)
16 | CN(Cc1ccccc1)C1(N(C)Cc2ccccc2)CC1 | > 100 µM (inactive) | > 100 µM (inactive) | > 100 µM (inactive) | > 100 µM (inactive) | > 100 µM (inactive) | > 100 µM (inactive) | > 100 µM (inactive) | > 100 µM (inactive) | > 100 µM (inactive) | > 100 µM (inactive) | > 100 µM (inactive) | > 100 µM (inactive) | > 100 µM (inactive) | – | > 100 µM (inactive) | > 100 µM (inactive) | > 100 µM (inactive) | > 100 µM (inactive) | > 100 µM (inactive)
